Test results as given in patent US9302999B2, “Substituted triazoles as herbicides” (E. I. DU PONT DE NEMOURS AND COMPANY, priority 2012, dated 2016).

Experiments:
Assay type in all cases: in vivo
[1] = test system: morningglory (Ipomoea coccinea); assay: Test C pre-/postemergence: morningglory
How it was run: (§1)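 Visual injury scored 0–100 (100 = complete control) against untreated controls after 13–15 greenhouse days. Surfactant-containing solvent formulations applied either to soil after sowing (loam/sand) or over 1- to 4-leaf plants, 2–18 cm tall.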

[2] = test system: crabgrass, large (large crabgrass, Digitaria sanguinalis); assay: Test A pre-/postemergence: crabgrass, large
How it was run: (§2)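 Injury is scored visually on a scale where 0 means no effect and 100 complete control, comparing treated with untreated plants after approximately ten greenhouse days. Both preemergence and postemergence applications are made at the same time.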

[3] = test system: velvetleaf (Abutilon theophrasti); assay: Test A pre-/postemergence: velvetleaf
How it was run: as §2

[4] = test system: Waterhemp; assay: Test C postemergence: waterhemp
How it was run: (§3)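 Seedlings are raised in pots of peat-based medium to 2–18 cm (1- to 4-leaf stage). The formulated compound is then applied postemergence. Plants stay in the greenhouse for 13 to 15 days and are rated visually against controls, where 0 means no effect and 100 complete control.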

[5] = test system: blackgrass (Alopecurus myosuroides); assay: Test C pre-/postemergence: blackgrass
How it was run: as §1

[6] = test system: foxtail, giant (giant foxtail, Setaria faberii); assay: Test A pre-/postemergence: foxtail, giant
How it was run: as §2

[7] = test system: galium (catchweed bedstraw, Galium aparine); assay: Test C pre-/postemergence: galium
How it was run: as §1

[8] = test system: morningglory (Ipomoea spp.); assay: Test A pre-/postemergence: morningglory
How it was run: as §2

[9] = test system: Oilseed Rape; assay: Test C postemergence: oilseed rape
How it was run: as §3

[10] = test system: johnsongrass (Sorghum halepense); assay: Test C pre-/postemergence: johnsongrass
How it was run: as §1

[11] = Postemergence, 31 g ai/ha, scale 0 to 100 (0 no effect, 100 complete control)
[12] = Postemergence, 62 g ai/ha, scale 0 to 100 (0 no effect, 100 complete control)
[13] = Postemergence, 125 g ai/ha, scale 0 to 100, 0 no effect, 100 complete control
[14] = Postemergence, 250 g ai/ha, scale 0 to 100
[15] = Preemergence, 31 g ai/ha, scale of 0 to 100, 0 is no effect, 100 is complete control
[16] = Preemergence, 62 g ai/ha, scale of 0 to 100, 0 is no effect, 100 is complete control
[17] = Preemergence, 125 g ai/ha, scale 0 to 100, 0 no effect, 100 complete control
[18] = Preemergence, 250 g ai/ha, scale 0 to 100, 0 no effect, 100 complete control
[19] = Postemergence, 125 g ai/ha, 0 to 100 scale, 0 is no effect, 100 is complete control
[20] = Postemergence, 500 g ai/ha, visual rating on 0 to 100 scale (0 no effect, 100 complete control), approximately ten days
[21] = Preemergence, 125 g ai/ha, 0 to 100 scale where 0 is no effect and 100 is complete control
[22] = Preemergence, 500 g ai/ha, 0 to 100 scale (0 no effect, 100 complete control)
[23] = 31 g ai/ha, scale 0 to 100 (0 no effect, 100 complete control)
[24] = 62 g ai/ha, scale 0 to 100 (0 no effect, 100 complete control)
[25] = Postemergence, 250 g ai/ha, scale 0 to 100 (0 no effect, 100 complete control)
[26] = Preemergence, 31 g ai/ha, scale 0 (no effect) to 100 (complete control)
[27] = Postemergence, 500 g ai/ha, 0 to 100 scale, 0 is no effect, 100 is complete control

Compound: CCc1nn(-c2ccc(C(F)(F)F)cc2)nc1Cc1ccnc(C(F)(F)F)c1 [Compound 155]
- Plant response rating, Morningglory [1, 11]: 55
- Plant response rating, Morningglory [1, 12]: 65
- Plant response rating, Morningglory [1, 13]: 65
- Plant response rating, Morningglory [1, 14]: 98
- Plant response rating, Morningglory [1, 15]: 10
- Plant response rating, Morningglory [1, 16]: 40
- Plant response rating, Morningglory [1, 17]: 60
- Plant response rating, Morningglory [1, 18]: 90
- Plant response rating, Crabgrass, Large [2, 19]: 100
- Crabgrass, Large plant response rating [2, 20]: 100
- Plant response rating, Crabgrass, Large [2, 21]: 100
- Plant response rating, Crabgrass, Large [2, 22]: 100
- Plant response rating, Velvetleaf [3, 19]: 100
- Velvetleaf plant response rating [3, 20]: 100
- Plant response rating, Waterhemp [4, 23]: 98
- Plant response rating, Waterhemp [4, 24]: 98
- Plant response rating, Waterhemp ([4]; 250 g ai/ha, scale 0 to 100): 98
- Plant response rating, Blackgrass [5, 11]: 40
- Plant response rating, Blackgrass [5, 12]: 70
- Plant response rating, Blackgrass [5, 13]: 85
- Plant response rating, Blackgrass [5, 14]: 90
- Plant response rating, Blackgrass [5, 15]: 90
- Plant response rating, Blackgrass [5, 16]: 90
- Plant response rating, Blackgrass [5, 17]: 90
- Plant response rating, Blackgrass [5, 18]: 90
- Plant response rating, Foxtail, Giant [6, 19]: 90
- Foxtail, Giant plant response rating [6, 20]: 100
- Plant response rating, Foxtail, Giant [6, 21]: 100
- Plant response rating, Foxtail, Giant [6, 22]: 100
- Plant response rating, Galium [7, 11]: 70
- Plant response rating, Galium [7, 12]: 75
- Plant response rating, Galium [7, 13]: 80
- Plant response rating, Galium [7, 14]: 95
- Plant response rating, Galium [7, 15]: 98
- Plant response rating, Galium [7, 16]: 100
- Plant response rating, Galium [7, 17]: 100
- Plant response rating, Galium [7, 18]: 100
- Plant response rating, Morningglory [8, 19]: 90
- Morningglory plant response rating [8, 20]: 100
- Plant response rating, Morningglory [8, 21]: 80
- Plant response rating, Morningglory [8, 22]: 90
- Plant response rating, Oilseed Rape [9, 23]: 90
- Plant response rating, Oilseed Rape [9, 24]: 90
- Plant response rating, Oilseed Rape ([9]; 250 g ai/ha, scale 0 to 100): 95
- Plant response rating, Johnsongrass [10, 11]: 20
- Plant response rating, Johnsongrass [10, 12]: 80
- Plant response rating, Johnsongrass [10, 13]: 98
- Plant response rating, Johnsongrass [10, 14]: 98
- Plant response rating, Johnsongrass [10, 15]: 80
- Plant response rating, Johnsongrass [10, 16]: 90
- Plant response rating, Johnsongrass [10, 17]: 90
- Plant response rating, Johnsongrass [10, 18]: 95

Compound: CCCc1nn(-c2ccc(F)c(F)c2)nc1Oc1ccnc(C(F)(F)F)c1 [Compound 172]
- Plant response rating, Morningglory [1, 11]: 65
- Plant response rating, Morningglory [1, 12]: 80
- Plant response rating, Morningglory [1, 25]: 80
- Plant response rating, Morningglory [1, 26]: 30
- Plant response rating, Morningglory [1, 16]: 35
- Plant response rating, Morningglory [1, 17]: 55
- Plant response rating, Morningglory [1, 18]: 70
- Plant response rating, Crabgrass, Large [2, 19]: 90
- Crabgrass, Large plant response rating [2, 27]: 100
- Plant response rating, Crabgrass, Large [2, 21]: 100
- Plant response rating, Crabgrass, Large [2, 22]: 100
- Plant response rating, Velvetleaf [3, 19]: 90
- Velvetleaf plant response rating [3, 27]: 100
- Plant response rating, Velvetleaf [3, 21]: 80
- Plant response rating, Velvetleaf [3, 22]: 90
- Plant response rating, Waterhemp [4, 24]: 95
- Plant response rating, Blackgrass [5, 11]: 10
- Plant response rating, Blackgrass [5, 12]: 25
- Plant response rating, Blackgrass [5, 13]: 60
- Plant response rating, Blackgrass [5, 14]: 60
- Plant response rating, Blackgrass [5, 26]: 90
- Plant response rating, Blackgrass [5, 16]: 95
- Plant response rating, Blackgrass [5, 17]: 95
- Plant response rating, Blackgrass [5, 18]: 95
- Plant response rating, Foxtail, Giant [6, 19]: 90
- Foxtail, Giant plant response rating [6, 27]: 90
- Plant response rating, Foxtail, Giant [6, 21]: 100
- Plant response rating, Foxtail, Giant [6, 22]: 100
- Plant response rating, Galium [7, 11]: 90
- Plant response rating, Galium [7, 12]: 90
- Plant response rating, Galium [7, 13]: 90
- Plant response rating, Galium [7, 25]: 90
- Plant response rating, Galium [7, 26]: 80
- Plant response rating, Galium [7, 16]: 100
- Plant response rating, Galium [7, 17]: 100
- Plant response rating, Galium [7, 18]: 100
- Plant response rating, Morningglory [8, 19]: 100
- Morningglory plant response rating [8, 27]: 100
- Plant response rating, Morningglory [8, 21]: 60
- Plant response rating, Morningglory [8, 22]: 80
- Plant response rating, Oilseed Rape [9, 24]: 90
- Plant response rating, Johnsongrass [10, 11]: 35
- Plant response rating, Johnsongrass [10, 12]: 60
- Plant response rating, Johnsongrass [10, 13]: 65
- Plant response rating, Johnsongrass [10, 25]: 95
- Plant response rating, Johnsongrass [10, 26]: 60
- Plant response rating, Johnsongrass [10, 16]: 75
- Plant response rating, Johnsongrass [10, 17]: 95
- Plant response rating, Johnsongrass [10, 18]: 98
